Reference: EP1371368A1, “Salvianolic acid components as lipase inhibitors” (N.V. Nutricia, priority 2002, dated 2003)

Target: T1, porcine pancreas lipase (Sus scrofa, UniProt P00591)
T1 construct: purchased ICN Biomedicals BV
T1 sequence (P00591 1-450): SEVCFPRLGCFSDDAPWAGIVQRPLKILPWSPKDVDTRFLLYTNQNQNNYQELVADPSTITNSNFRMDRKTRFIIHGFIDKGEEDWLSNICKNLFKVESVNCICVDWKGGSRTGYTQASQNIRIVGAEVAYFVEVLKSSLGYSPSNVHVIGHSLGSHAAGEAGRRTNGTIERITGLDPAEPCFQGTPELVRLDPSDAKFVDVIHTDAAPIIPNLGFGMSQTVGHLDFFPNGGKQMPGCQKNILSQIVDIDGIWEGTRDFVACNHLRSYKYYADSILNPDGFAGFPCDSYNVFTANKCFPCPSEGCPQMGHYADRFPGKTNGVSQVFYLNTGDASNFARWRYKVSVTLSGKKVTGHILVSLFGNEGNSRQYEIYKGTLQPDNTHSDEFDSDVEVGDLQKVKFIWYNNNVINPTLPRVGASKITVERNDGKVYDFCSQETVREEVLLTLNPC
Experiment: In vitro lipase inhibitory activity (hydrolysis of p-nitrophenyl caprylate to p-nitrophenol, absorption at 405 nm)
Type: biochemical
Settings: inhibition of lipase activity compared to control at the final concentration printed in the same row
Method: Lipase activity was determined by measuring the rate of hydrolysis of p-nitrophenyl caprylate to p-nitrophenol (yellow) and caprylate.
Phosphate buffer A (200 mM phosphate buffer with a pH 7) was prepared by mixing: 488 ml 200 mM Na2HPO4·H2O (17.5 gram/500 ml) with 296 ml 200 mM NaH2PO4·H2O (13.8 gram/500 ml) followed by adjustment of the pH. Substrate solution was prepared freshly by mixing: • a) 500 ml buffer B (200 mM phosphate buffer A pH 7 containing 0.1% (w/v) Triton x-100) and • b) 5.3 ml stock solution of the substrate (250 mM p-nitrophenyl caprylaat (pnp) in acetonitrile). […] The final concentration of pnp in the substrate solution is thus 2.66 mM pnp. Subsequently, the substrate solution was placed in an ultrasonic bath for exactly 3 minutes. […]
Samples were prepared by adding 40 mg of commercial extracts of Salvia material to 4 ml DMSO, incubating at room temperature for 15 minutes, followed by centrifugation to remove the insolubles. […] For each sample the capacity to inhibit lipase activity was determined.
25 µl of sample (25 µl DMSO for control) was added to 150µl substrate solution and incubated for 10 minutes at 37 °C. Subsequently 25 µl lipase solution was added and the p-nitrophenol formation was determined during a period of 10 minutes by measuring the absorption increase at 405 nm. […]

CCCCCCCCCCC[C@@H](C[C@@H]1OC(=O)[C@H]1CCCCCC)OC(=O)[C@H](CC(C)C)NC=O [Orlistat]
Inhibition (%): 50%
